Measurements published in publication PMC8619046, “ABCB1 and ABCG2 Control Brain Accumulation and Intestinal Disposition of the Novel ROS1/TRK/ALK Inhibitor Repotrectinib, While OATP1A/1B, ABCG2, and CYP3A Limit Its Oral Availability” (Pharmaceutics, 2021).
Values joined by “and” are separate entries in the source; they are usually repeats but may differ in a detail not shown here. Equal entries are not always repeated. Where two headings read alike, the source gives them in different places.

Tests used:
[1] = 8-h pilot oral plasma pharmacokinetics and tissue distribution, female wild-type, Abcb1a/1b;Abcg2−/− and Oatp1a/1b−/− mice; type: in vivo; conditions: 10 mg/kg oral; for Fold change (SIC (% of dose)-to-plasma ratio) / Fold change SIC (% of dose) / Fold increase Cbrain / Fold increase Cliver / Fold increase ratio (liver-to-plasma) / Fold change AUC0-8h / Fold increase ratio (brain-to-plasma): vs wild-type; for Kp at 8 h / concentration at 8 h / Cmax / AUC(0-t): female, po; for AUC(0-t): read-out: AUC0-8h
Description: (§1) Mice with similar average ages (and body weights) were randomly allocated in experimental groups as far as possible. Mice were maintained in a temperature-controlled and specific pathogen-free environment with a 12-h light and 12-h dark cycle and they received a standard diet (Transbreed, SDS Diets, Technilab-BMI, Someren, The Netherlands) and acidified water ad libitum. […] Given the objective main readout (repotrectinib plasma and tissue concentrations as measured by LC-MS/MS), no blinding method was applied.
(§2) Repotrectinib was dissolved in dimethyl sulfoxide (DMSO) at a concentration of 50 mg/mL. This stock solution was first diluted 3-fold with ethanol/polysorbate 80 (1/1; v/v), followed by further dilution with a 10 mM hydrochloric acid solution, yielding a dosing solution of 1 mg/mL, freshly prepared on the day of experiment. Final concentrations of the solvents in the administration solution were: 2%, 2%, 2%, and 94% (all v/v) for DMSO, ethanol, polysorbate 80, and 10 mM hydrochloric acid solution, respectively.
(§3) To minimize variation in absorption upon oral administration, mice were fasted for 2–3 h before repotrectinib (10 mg/kg body weight) was administered by gavage into the stomach at 10 µL/g body weight, with a blunt-ended needle. Tail vein serial blood samples were collected at 0.125, 0.25, 0.5, 1, 2 and 4 h using heparinized capillary tubes (Sarstedt, Nümbrecht, Germany) for the 8-h experiments. For the 4- and 2-h experiments, blood samplings were performed from the tail vein with the same schedule, but terminated at 2 and 1 h, respectively. Eight, four, or two hours after oral administration, mice were deeply anesthetized with 2–3% isoflurane, followed by cardiac puncture to collect blood in Eppendorf tubes containing heparin as an anticoagulant. Brain, liver, spleen, kidney, lung, small intestine, and testis were rapidly collected after sacrificing the mice by cervical dislocation. The small intestinal contents (SIC) were separated from small intestinal tissue (SI), which was flushed and rinsed with cold saline to remove any residual feces. Brain, liver, spleen, kidney, lung, SI, SIC, and testis were homogenized with 1, 3, 1, 2, 1, 3, 2, and 1 mL of 2% BSA (w/v), respectively. Plasma fraction was isolated from blood by centrifugation at 9000× g for 6 min at 4 °C. All samples were stored at −30 °C until analysis.
(§4) A sensitive and specific liquid chromatography-tandem mass spectrometry method using protein precipitation pre-treatment was adopted to quantify the concentration of repotrectinib in DMEM medium, plasma samples and tissue homogenates.
(§5) A non-compartmental model using the PKSolver add-in program for Microsoft Excel was adopted to calculate the pharmacokinetic parameters of repotrectinib. Oral availability was assessed by the plasma area under the curve (AUC), calculated using repotrectinib plasma concentration-time curves with the linear trapezoidal rule without extrapolating the infinity. Statistical testing was performed in Graphpad Prism7 (Graphpad Software, La Jolla, CA, USA). All data are presented as geometric means ± SD. Heteroscedastic data were log-transformed before applying statistical analysis. When differences between two groups were compared, the two-sided unpaired Student’s t test was used. One-way analysis of variance (ANOVA) was applied when multiple groups were compared, and the Bonferroni post hoc correction was used to accommodate multiple testing. Differences were considered statistically significant when P < 0.05.

[2] = 2-h oral plasma pharmacokinetics and tissue distribution, male wild-type and Oatp1a/1b−/− mice; type: in vivo; conditions: 10 mg/kg oral; for concentration at 2 h / Cmax / AUC(0-t) / Tmax / Kp at 2 h: mouse; for Cmax / AUC(0-t) / Tmax: plasma; for AUC(0-t): read-out: AUC0–2h; for Tmax: median (range); for Fold change (SIWC % of dose) / Fold change ratio (SIWC (%)-to-AUC0–2h) / Fold change ratio (SIWC (%)-to-plasma) / Fold change ratio (liver-to-plasma) / Fold increase CSIWC / Fold increase Cliver / Fold increase AUC0–2h: vs wild-type; for Kp at 2 h: male, po, read-out: Liver-to-plasma ratio
Description: as §1, §2, §3, §4, §5

[3] = Table S1, female Abcb1a/1b;Abcg2−/− mice, 8 h
[4] = Table S1, female Abcb1a/1b;Abcg2−/− mice, 8 h, 10 mg/kg
[5] = Table S1, female Oatp1a/1b−/− mice, 8 h
[6] = Table S1, female wild-type mice, 8 h
[7] = FVB, mouse, plasma, 10 mg/kg, Table S1, female Abcb1a/1b;Abcg2−/− mice, 8 h
[8] = FVB, mouse, plasma, 10 mg/kg, Table S1, female wild-type mice, 8 h
[9] = Oatp1a/1b−/− (>99% FVB background), male Oatp1a/1b−/− mice
[10] = male Oatp1a/1b−/− mice vs wild-type
[11] = wild-type (>99% FVB background), male wild-type mice

## C[C@H]1CNC(=O)c2cnn3ccc(nc23)N[C@H](C)c2cc(F)ccc2O1 [repotrectinib]
[1]; >99% FVB background, mouse, plasma, female wild-type and Abcb1a/1b;Abcg2−/− mice, 8-h pilot, read-out: time of peak plasma concentrations after dosing (converted)
  Tmax: 30 min
[1]; FVB, mouse, plasma, Table S1, median (range), female wild-type mice, 8 h, read-out: Tmax
  Tmax: 30 min
[1]; [3]
  SIC (% of dose): 0.22 ± 0.20 % of dose
  SIC (% of dose)-to-plasma ratio: 0.48 ± 0.43 ·10-3
  Fold change (SIC (% of dose)-to-plasma ratio): 0.054
  Fold change SIC (% of dose): 0.11
  Fold increase Cbrain: 19.5
  Fold increase Cliver: 1.50
  Fold increase ratio (liver-to-plasma): 0.79
[1]; [4]
  Fold change AUC0-8h: 1.42 and 1.4
  Fold increase ratio (brain-to-plasma): 9.46 and 9.5
[1]; [5]
  SIC (% of dose): 5.59 ± 3.32 % of dose
  SIC (% of dose)-to-plasma ratio: 14.5 ± 8.9 ·10-3
  Fold change (SIC (% of dose)-to-plasma ratio): 1.63
  Fold change SIC (% of dose): 2.69
  Fold increase Cbrain: 3.64
  Fold increase Cliver: 1.43
  Fold increase ratio (brain-to-plasma): 1.85
  Fold increase ratio (liver-to-plasma): 0.86
[1]; Table S1, female Oatp1a/1b−/− mice, 8 h, 10 mg/kg
  Fold change AUC0-8h: 1.51 and 1.5
[1]; [6]
  SIC (% of dose): 2.08 ± 1.35 % of dose
  SIC (% of dose)-to-plasma ratio: 8.87 ± 1.83 ·10-3
  Fold change (SIC (% of dose)-to-plasma ratio): 1.00
  Fold change AUC0-8h: 1.00
  Fold change SIC (% of dose): 1.00
  Fold increase Cbrain: 1.00
  Fold increase Cliver: 1.00
  Fold increase ratio (brain-to-plasma): 1.00
  Fold increase ratio (liver-to-plasma): 1.00
[1]; Table S1, median (range), female Abcb1a/1b;Abcg2−/− mice, 8 h
  Tmax: 0.5 (0 .5-1) h
[1]; Table S1, median (range), female Oatp1a/1b−/− mice, 8 h
  Tmax: 0.5 (0.25-1) h
[1]; FVB, mouse, brain, 10 mg/kg, Table S1, female Abcb1a/1b;Abcg2−/− mice, 8 h, read-out: Brain-to-plasma ratio
  Kp at 8 h: 2.46 ± 0.31
[1]; FVB, mouse, brain, 10 mg/kg, Table S1, female Abcb1a/1b;Abcg2−/− mice, 8 h, read-out: Cbrain
  concentration at 8 h: 1000 ± 320 ng/g
[1]; FVB, mouse, brain, 10 mg/kg, Table S1, female Oatp1a/1b−/− mice, 8 h, read-out: Brain-to-plasma ratio
  Kp at 8 h: 0.48 ± 0.12
[1]; FVB, mouse, brain, 10 mg/kg, Table S1, female Oatp1a/1b−/− mice, 8 h, read-out: Cbrain
  concentration at 8 h: 186 ± 51.4 ng/g
[1]; FVB, mouse, brain, 10 mg/kg, Table S1, female wild-type mice, 8 h, read-out: Brain-to-plasma ratio
  Kp at 8 h: 0.26 ± 0.12
[1]; FVB, mouse, brain, 10 mg/kg, Table S1, female wild-type mice, 8 h, read-out: Cbrain
  concentration at 8 h: 51.2 ± 17.8 ng/g
[1]; FVB, mouse, liver, 10 mg/kg, Table S1, female Abcb1a/1b;Abcg2−/− mice, 8 h, read-out: Cliver
  concentration at 8 h: 1780 ± 770 ng/mL
[1]; FVB, mouse, liver, 10 mg/kg, Table S1, female Abcb1a/1b;Abcg2−/− mice, 8 h, read-out: Liver-to-plasma ratio
  Kp at 8 h: 4.21 ± 0.35
[1]; FVB, mouse, liver, 10 mg/kg, Table S1, female Oatp1a/1b−/− mice, 8 h, read-out: Cliver
  concentration at 8 h: 1750 ± 450 ng/mL
[1]; FVB, mouse, liver, 10 mg/kg, Table S1, female Oatp1a/1b−/− mice, 8 h, read-out: Liver-to-plasma ratio
  Kp at 8 h: 4.59 ± 1.28
[1]; FVB, mouse, liver, 10 mg/kg, Table S1, female wild-type mice, 8 h, read-out: Cliver
  concentration at 8 h: 1220 ± 650 ng/mL
[1]; FVB, mouse, liver, 10 mg/kg, Table S1, female wild-type mice, 8 h, read-out: Liver-to-plasma ratio
  Kp at 8 h: 5.36 ± 0.54
[1]; [7]
  Cmax: 6190 ± 440 ng/mL
  AUC(0-t): 23100 ± 2110 ng·h/mL
[1]; FVB, mouse, plasma, 10 mg/kg, Table S1, female Oatp1a/1b−/− mice, 8 h
  AUC(0-t): 24600 ± 3270 ng·h/mL
[1]; [8]
  Cmax: 4800 ± 1780 ng/mL
  AUC(0-t): 16300 ± 6350 ng·h/mL
[1]; Oatp1a/1b−/−, >99% FVB background, mouse, plasma, 10 mg/kg, Table S1, female Oatp1a/1b−/− mice, 8 h
  Cmax: 6150 ± 800 ng/mL
[2]; FVB, small intestine with content, male wild-type mice, read-out: CSIWC
  concentration at 2 h: 84700 ± 24100 ng/g
[2]; Oatp1a/1b−/− (>99% FVB background), liver, male Oatp1a/1b−/− mice, read-out: Cliver
  concentration at 2 h: 15300 ± 1600 ng/g
[2]; [9]
  Cmax: 5380 ± 520 ng/mL
  AUC(0-t): 8960 ± 770 ng·h/mL
  Tmax: 30 min
[2]; Oatp1a/1b−/− (>99% FVB background), small intestine with content, male Oatp1a/1b−/− mice, read-out: CSIWC
  concentration at 2 h: 121000 ± 29200 ng/g
[2]; [10]
  liver-to-plasma ratio, fold reduction: 2.3 fold
  relative intestinal (SIWC) recovery corrected for plasma concentration, fold decrease: 2.8 fold
  relative intestinal (SIWC) recovery corrected for plasma exposure (AUC0–2h), fold decrease: 1.9 fold
[2]; male Oatp1a/1b−/− mice
  SIWC (% of dose): 21.3 ± 3.7 % of dose
  SIWC (%)-to-AUC0–2h ratio: 2.40 ± 0.54 *** ·10^−3
  SIWC (%)-to-plasma ratio: 5.58 ± 1.09 *** ·10^−3
  Fold change (SIWC % of dose): 1.22
  Fold change ratio (SIWC (%)-to-AUC0–2h): 0.52
  Fold change ratio (SIWC (%)-to-plasma): 0.35
  Fold change ratio (liver-to-plasma): 0.44
  Fold increase CSIWC: 1.43
  Fold increase Cliver: 1.55
[2]; male Oatp1a/1b−/− mice, 10 mg/kg
  Fold increase AUC0–2h: 2.3 and 2.29
[2]; male wild-type mice
  SIWC (% of dose): 17.4 ± 5.6 % of dose
  SIWC (%)-to-AUC0–2h ratio: 4.59 ± 1.04 ·10^−3
  SIWC (%)-to-plasma ratio: 15.8 ± 3.9 ·10^−3
  Fold change (SIWC % of dose): 1.00
  Fold change ratio (SIWC (%)-to-AUC0–2h): 1.00
  Fold change ratio (SIWC (%)-to-plasma): 1.00
  Fold change ratio (liver-to-plasma): 1.00
  Fold increase AUC0–2h: 1.00
  Fold increase CSIWC: 1.00
  Fold increase Cliver: 1.00
[2]; FVB, liver, 10 mg/kg, male Oatp1a/1b−/− mice
  Kp at 2 h: 4 ± 0.54
[2]; FVB, liver, 10 mg/kg, male wild-type mice
  Kp at 2 h: 9.16 ± 1.53
[2]; wild-type (>99% FVB background), liver, male wild-type mice, read-out: Cliver
  concentration at 2 h: 9840 ± 1160 ng/g
[2]; [11]
  Cmax: 2640 ± 990 ng/mL
  AUC(0-t): 3920 ± 1290 ng·h/mL
  Tmax: 30 min
